# In patent US20220193253A1, “SLOW-RELEASE CYTOKINE CONJUGATES” (ProLynx LLC, priority 2019, published 2022):
# What was measured:
# IL-2Rαβγ = molecular target: T1, IL-2Rαβγ (Homo sapiens, UniProt P01589+P14784+P31785); assay: U2OS cell-based assay kit for IL-2Rαβγ binding (DiscoverX)
# T1 construct: host or cells: U2OS
# T1 sequence (P01589 22-272): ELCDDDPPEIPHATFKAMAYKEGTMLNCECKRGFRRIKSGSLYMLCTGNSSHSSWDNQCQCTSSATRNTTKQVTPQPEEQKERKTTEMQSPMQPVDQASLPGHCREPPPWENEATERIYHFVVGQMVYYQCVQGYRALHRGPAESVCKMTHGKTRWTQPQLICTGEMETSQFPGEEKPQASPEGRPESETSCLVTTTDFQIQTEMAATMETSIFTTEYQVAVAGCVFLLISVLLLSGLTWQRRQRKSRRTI
# T1 sequence (P14784 27-551): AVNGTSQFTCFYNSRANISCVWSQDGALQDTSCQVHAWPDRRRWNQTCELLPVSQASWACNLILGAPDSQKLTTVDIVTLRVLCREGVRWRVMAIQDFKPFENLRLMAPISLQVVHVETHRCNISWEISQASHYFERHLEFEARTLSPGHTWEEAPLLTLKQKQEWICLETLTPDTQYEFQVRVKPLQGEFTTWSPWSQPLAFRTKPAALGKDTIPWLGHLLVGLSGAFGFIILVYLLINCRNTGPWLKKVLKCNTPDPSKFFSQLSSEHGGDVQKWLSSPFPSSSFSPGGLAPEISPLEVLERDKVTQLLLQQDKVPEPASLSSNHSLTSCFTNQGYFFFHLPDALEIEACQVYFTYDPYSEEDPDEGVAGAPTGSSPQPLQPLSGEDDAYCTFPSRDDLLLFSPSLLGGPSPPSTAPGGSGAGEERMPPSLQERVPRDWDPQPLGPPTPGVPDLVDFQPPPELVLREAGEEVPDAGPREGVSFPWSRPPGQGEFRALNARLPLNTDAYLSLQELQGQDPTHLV
# T1 sequence (P31785 23-369): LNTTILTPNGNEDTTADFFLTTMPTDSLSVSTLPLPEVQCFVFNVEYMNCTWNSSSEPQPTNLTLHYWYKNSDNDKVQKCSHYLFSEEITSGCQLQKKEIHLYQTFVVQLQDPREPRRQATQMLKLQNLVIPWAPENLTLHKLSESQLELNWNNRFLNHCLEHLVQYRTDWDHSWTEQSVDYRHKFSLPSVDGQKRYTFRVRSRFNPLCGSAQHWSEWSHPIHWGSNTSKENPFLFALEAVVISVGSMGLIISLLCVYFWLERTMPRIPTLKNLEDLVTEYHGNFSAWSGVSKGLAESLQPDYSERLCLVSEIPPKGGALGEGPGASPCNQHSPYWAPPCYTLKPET
# Description: (§1) IL-2[N88R,C125S] was prepared by expression in HEK cells. Cell-based receptor binding assays were performed to evaluate the activity of the mutein against the high-affinity αβγ trimeric (Treg) and intermediate affinity βγ dimeric (Teff) forms of the IL-2 receptor (Table 1). The mutein binds only 6-fold poorer than IL-2 to the IL-2Rαβγ but about 900-fold poorer to the IL-2Rβγ.
# A U2OS cell-based assay kit for IL-2Rαβγ binding was performed according the manufacturer's instructions (DiscoverX, Part #93-1003E3CP0). Cells were plated at 100 μL (˜10,000 cells/well) in 96 well assay plates and grown for 24 hours at 37° C., 5% CO2. Cells were then treated for 6 hours at 37° C., 5% CO2 with dilution series of either WT IL-2, IL-2 N88R, C125S, or IL-2 N88R, C125S released from microspheres at pH 9.4. Eleven WT IL-2 concentrations were assayed between 2 pg/mL-100 ng/mL (0.1 pM-6 nM). Eleven IL-2 N88R, C125S and released IL-2 N88R, C125S concentrations were assayed between 200 pg/mL-10 μg/mL ([…]-600 nM). Treated cells were incubated with chemiluminescent substrate for 1 hour at ambient temperature in the dark, then luminescence was read with a Spectramax i3 plate reader with 250 ms integration time.
# IL-2Rβγ = molecular target: T2, IL-2Rβγ (Homo sapiens, UniProt P14784+P31785); assay: U2OS cell-based assay kit for IL-2Rβγ binding (DiscoverX); conditions: mutein vs WT IL-2
# T2 construct: host or cells: U2OS
# T2 sequence (P14784 27-551): T1 sequence (P14784 27-551)
# T2 sequence (P31785 23-369): T1 sequence (P31785 23-369)
# Description: as §1
# A U2OS cell-based assay kit for IL-2Rβγ binding was performed according the manufacturer's instructions (DiscoverX, Part #93-0998E3CP5). Cells were plated at 50 μL (˜5,000 cells/well) in 96 well assay plates and grown for 48 hours at 37° C., 5% CO2. Cells were then treated for 6 hours at 37° C., 5% CO2 with dilution series of either WT IL-2, IL-2 N88R, C125S, or IL-2 N88R, C125S released from microspheres at pH 9.4. Eleven WT IL-2 concentrations were assayed between 17 pg/mL-1 μg/mL (1 pM-61 nM). Eleven IL-2 N88R, C125S concentrations were assayed between 1.7 ng/mL-100 μg/mL ([…]-6 μM). Eleven released remnant IL-2 N88R, C125S concentrations were assayed between 170 pg/mL-10 μg/mL ([…]-600 nM). Treated cells were incubated with chemiluminescent substrate for 1 hour at ambient temperature in the dark, then luminescence was read with a Spectramax i3 plate reader with 250 ms integration time.
# [1] = system: T-cells in the spleen and islets; assay: Pharmacodynamics of IL2 and IL2[N88R,C125S] in NOD mice (flow cytometry of spleen and islets); type: in vivo; conditions: daily injections 25,000 units for five days
# Description: Mice were sacrificed 2 hours after the last injection and the spleen and pancreas were harvested for flow cytometry analysis to measure changes in total number of T-cells and their differentiation in the spleen and islets.
# [2] = system: CD8+ memory T cells and NK cells in PBMCs; assay: Pharmacodynamics of [aminopropyl]-RLI released from microsphere conjugate; type: in vivo, C57Black mice
# Description: The pharmacodynamics of the MS-RLI conjugate (34 μg, 1.5 nmol) was compared to that of empty MSs, and free RLI (2.5 μg, QDx4) in C57Black mice (n=5/group). Blood draws were taken over 13 days and the PBMCs surface stained using general laboratory procedures. Fixation and intracellular staining followed protocols from the eBioscience Foxp3/Transcription Factor Staining Buffer Set (ThermoFisher Scientific). Commercial antibodies used were against NK1.1, CD3, CD8, CD19, CD44 and Ki-67 expressing cells. Stained single cell suspension were analyzed using a LSRII flow cytometer (BD Biosciences) and analyzed using FlowJo cytometry analysis software (TreeStar, Ashland, Oreg.). Cell populations of particular interest were CD8+ memory T cells (CD44^hiCD8+), natural killer (CD3-NK1.1+) cells, proliferating CD8+ memory T cells (CD44^hiCD8+Ki-67+), and proliferating natural killer (CD3-NK1.1+Ki-67+) cells.
# [3] = in vivo; cited from earlier work
Fold-change βγ EC50 vs αβγ EC50 (selectivity for IL-2Rαβγ vs IL-2Rβγ) (IL-2Rαβγ),Fold-change of βγ EC50 vs WT IL-2 (fold poorer binding) (IL-2Rβγ),Substance,effect on CD4+ and CD8+ effector/memory T-cells in the spleen [1],effect on the T-cells in the islets compared to PBS vehicle [1],day of return of CD44hiCD8+ T cells to baseline levels ([2]; 2.5 μg QDx4) [days],"fold increase in the percentage of NK cells in the PBMCs ([2]; MS-RLI 34 μg single, free RLI 2.5 μg QDx4) [fold]","time post treatment at which increase in CD44hiCD8+ T cells was noticeable ([2]; MS-RLI 34 μg single, native RLI 2.5 μg QDx4) [days]",half-life of free RLI [3] [h]
"over 3,000 fold",about 900 fold,"IL-2 N88R, C125S: IL-2 mutein, SEQ ID No: 3, prepared by expression in HEK cells",little to no effect,little to no effect,,,,
,,"RLI: receptor-linked interleukin: fusion protein comprising IL-15 and the sushi-domain of the receptor α-subunit, SEQ ID No: 16",,,≤ 7,~4,5,3
